Entries after “also recorded” stand apart in the source; their conditions may differ.
What was measured:
[1] = i.p. 50 mg/kg bw, LPS 37.5 mg/kg bw, 28–42 h post LPS administration; cited from earlier work
[2] = tested on: COX–2; details: cited from earlier work
[3] = tested on: MCP–1; assay: kidney MCP–1 mRNA (qPCR) in LPS induced sepsis in mice; format: in vivo, C57BL/6N mice; details: compound i. p. 100 mg/kg bw 2 h before LPS, 24 h after LPS, vs. LPS group
Experimental: (§1) Samples were stored at -80°C till further analysis. […] Plasma was generated by centrifugation at 4000 g at 4°C and stored at -80°C till further analysis.
(§2) Tissue sections were stored in RNA-later immediately after organ retrieval. Total RNA was extracted using the RNeasy mini kit system (Qiagen, Hilden, Germany) and transcribed using Superscript II Reverse transcriptase (Invitrogen). Quantitative (q) PCR was performed on […] (Roche Diagnostics, Penzberg, Germany) using FastStart Sybr-Green chemistry. Gene-specific primers for IL–6 (Quantitec QT00098875, Qiagen) and MCP–1 (Quantitec QT00167832, Qiagen) were used for the gene of interest and HPRT served as house keeping gene for normalization (Quantitec QT00166768, Qigaen). Quantification was carried out using qgene software.

[4] = tested on: IL–6; assay: kidney IL–6 mRNA (qPCR) in LPS induced sepsis in mice; format: in vivo, C57BL/6N mice; details: compound i. p. 100 mg/kg bw 2 h before LPS, 24 h after LPS
Experimental: as §1, §2

[5] = clinical chemistry in plasma (urea, creatinine, AST, ALT, LDH) in LPS induced sepsis in mice; format: in vivo, C57BL/6N mice; details: compound i. p. 100 mg/kg bw 2 h before LPS, 24 h after LPS
[6] = single soy meal containing 3.6 μmol total genistein/kg bw; cited from earlier work
[7] = tested on: COX–2 protein; assay: COX–2 expression in HCA–7 cells (Western Blot); format: cell-based, human; details: 24 h, vs. control
[8] = tested on: COX–2 protein; assay: COX–2 expression in LPS stimulated primary human monocytes (Western Blot); details: 24 h, vs. control

Structure (SMILES)	mortality [1]	IC50 ([2]; read-out: IC50, RAW 264.7 cells) [µM]	kidney MCP–1 mRNA levels [3]	kidney IL–6 mRNA expression ([4]; vs. LPS group)	plasma ALT activity [5]	plasma AST activity [5]	maximal plasma concentrations (free and conjugated form) [6] [µM]	PGE2 formation / levels, RAW 264.7 cells [2]	COX-2 Expression, HCA-7 cell line [7]	COX-2 Expression, HCA-7 cell line ([7]; listed as genistein)	plasma LDH activity [5]	plasma creatinine level [5]	plasma urea level [5]	COX-2 Expression, primary monocytes [8]	further increase of kidney IL–6 mRNA expression in comparison to LPS group [4] [fold]
O=c1cc(-c2ccc(O)cc2)oc2cc(O)cc(O)c12 [Apigenin, apigenin]	reduced mortality	[…]	did not see an effect	did not see an effect	–	–	–	–	–	–	–	–	–	–	–
O=c1c(-c2ccc(O)cc2)coc2cc(O)cc(O)c12 [Genistein, genistein]	–	–	–	–	elevated	elevated	4	reduced PGE2 formation	100 μM:COX–2 ↓	decreased COX–2 expression	–	–	–	–	–
Oc1ccc(/C=C/c2cc(O)cc3c2[C@@H](c2cc(O)cc(O)c2)[C@H](c2ccc(O)cc2)O3)cc1 [ε-Viniferin, ε-viniferin]	–	–	–	–	elevated; also recorded: moderate elevation	elevated; also recorded: moderate elevation	–	–	no effect (up to 1 μM)	–	moderate elevation	elevation	elevation	no effect (up to 1 μM)	28
